Measurements from article PMC6311682, “Design, Synthesis, and Biological Evaluation of 2-Nitroimidazopyrazin-one/-es with Antitubercular and Antiparasitic Activity” (Journal of Medicinal Chemistry, 2018).
In brackets after ≈: the same amount, converted by molar mass. Like-named read-outs stand apart in the source and are kept apart here.

How the values were obtained:
HepG2 cells = system: HepG2 cells; design: method as in Jarrad et al. 2; conditions: ATCC HB-8065; ref Jarrad et al. 2; read-out: cytotoxicity CC50 HepG2; cited from earlier work
HEK293 cells = system: HEK293 cells; design: method as in Jarrad et al. 2; conditions: ATCC CRL-1573; ref Jarrad et al. 2; read-out: cytotoxicity CC50 HEK 293; cited from earlier work
[1] = system: C. difficile (630, ATCC BAA-1382); experiment: Broth microdilution MIC assay, C. difficile; format: cell-based, Clostridium difficile; conditions: 630 ATCC BAA-1382, median MIC; for MIC: Clostridioides difficile, ATCCBAA1382, read-out: antibacterial MIC C. difficile
[2] = Mammalian cytotoxicity assay (resazurin), HepG2; conditions: human, HepG2 cells
[3] = system: C. albicans (ATCC 90028) and C. neoformans (H99, ATCC 208821); experiment: Broth microdilution MIC assay, fungi; format: cell-based; conditions: for MIC: Candida albicans, read-out: antifungal MIC
[4] = Kinetic solubility determination by LC-UV; conditions: room temperature, 1% DMSO
[5] = Broth microdilution MIC assay, ESKAPE pathogens; format: cell-based; conditions: S. aureus, E. coli, K. pneumoniae, A. baumannii, P. aeruginosa; read-out: antibacterial MIC ESKAPE
[6] = system: ESKAPE pathogens S. aureus (ATCC 43300), E. coli (ATCC 25922), K. pneumoniae (ATCC 700603), A. baumannii (ATCC 19606), P. aeruginosa (ATCC 27853); experiment: Broth microdilution MIC assay, ESKAPE pathogens; format: cell-based
[7] = Mammalian cytotoxicity assay (resazurin), HEK293; conditions: human, HEK293 cells
[8] = system: L. donovani MHOM/IN/80/DD8 (ATCC50212); experiment: L. donovani DD8 intracellular (THP-1) amastigote assay; format: cell-based; conditions: Leishmania donovani
[9] = PBS, pH 7.4, Solubility µM (PBS), PBS pH 7.4, 24 h
[10] = water, Solubility µM (H2O), 24 h
[11] = read-out: antiparasitic IC50 L. donovani
[12] = read-out: antiparasitic pIC50 ± SE L. donovani (converted)

SMILES	CC50 (HepG2 cells)	CC50 (HEK293 cells)	antibacterial MIC C. difficile [1]	MIC [1]	CC50 at 24 h [2]	antifungal MIC [3]	MIC [3]	solubility at 24 h [4, 9]	solubility at 24 h [4, 10]	MIC [5]	antibacterial MIC ESKAPE [6]	CC50 at 24 h [7]	IC50 [8, 11]	IC50 [8, 12]
O=C(NCc1cccc(OC(F)(F)F)c1)c1ncc([N+](=O)[O-])[nH]1 [16f]	> 100 µM	> 100 µM	–	–	–	–	–	–	–	–	–	–	–	–
O=C(NCc1ccc(F)cc1)c1ncc([N+](=O)[O-])[nH]1 [16e]	> 100 µM	> 100 µM	–	–	–	–	–	–	–	–	–	–	–	–
CC(=O)OCCOc1nc(-c2ccccc2)cn2cc([N+](=O)[O-])nc12 [24c, 2-((2-Nitro-6-phenylimidazo[1,2-a]pyrazin-8-yl)oxy)ethyl Acetate]	–	–	>64 µg/mL	> 64 µg/mL	> 100 µM	>32 µg/mL	> 32 µg/mL	< 5 µM	< 5 µM	> 32 µg/mL	>32 µg/mL	> 100 µM	> 80 µM	> 79.4 µM
NC(=O)c1nc([N+](=O)[O-])cn1Cc1ccc(F)cc1 [28e]	> 100 µM	> 100 µM	–	–	–	–	–	–	–	–	–	–	–	–
Cc1[nH]c(=O)c2nc([N+](=O)[O-])cn2c1C [26a, 5,6-Dimethyl-2-nitroimidazo[1,2-a]pyrazin-8(7H)-one]	–	–	>64 µg/mL	> 64 µg/mL	> 100 µM	>32 µg/mL	> 32 µg/mL	> 200 µM	> 200 µM	> 32 µg/mL	>32 µg/mL	> 100 µM	> 80 µM	> 79.4 µM
Cc1nc(OCc2cccc(OC(F)(F)F)c2)c2nc([N+](=O)[O-])cn2c1C [26g, 5,6-Dimethyl-2-nitro-8-((3-(trifluoromethoxy)benzyl)oxy)imidazo[1,2-a]pyrazine]	–	–	–	–	> 100 µM	>32 µg/mL	> 32 µg/mL	< 5 µM	< 5 µM	> 32 µg/mL	>32 µg/mL	> 100 µM	> 20 µM	> 20 µM
Cc1ccc(Cn2c(C)cn3cc([N+](=O)[O-])nc3c2=O)cc1 [25h, 6-Methyl-7-(4-methylbenzyl)-2-nitroimidazo[1,2-a]pyrazin-8(7H)-one]	–	–	–	–	> 100 µM	>32 µg/mL	> 32 µg/mL	–	7.5 ± 0.245 µM (≈ 2.24 µg/mL)	> 32 µg/mL	>32 µg/mL	> 100 µM	> 40 µM	> 39.8 µM
Cc1ccc(Cn2c(C)c(C)n3cc([N+](=O)[O-])nc3c2=O)cc1 [26d, 5,6-Dimethyl-7-(4-methylbenzyl)-2-nitroimidazo[1,2-a]pyrazin-8(7H)-one]	–	–	–	–	> 100 µM	>32 µg/mL	> 32 µg/mL	6.13 ± 0.0957 µM (≈ 1.91 µg/mL)	8.95 ± 1.51 µM (≈ 2.8 µg/mL)	> 32 µg/mL	>32 µg/mL	> 100 µM	> 40 µM	> 39.8 µM
Cc1nc(OCc2ccc(OC(F)(F)F)cc2)c2nc([N+](=O)[O-])cn2c1C [26c, 5,6-Dimethyl-2-nitro-8-((4-(trifluoromethoxy)benzyl)oxy)imidazo[1,2-a]pyrazine]	–	–	>64 µg/mL	> 64 µg/mL	> 100 µM	>32 µg/mL	> 32 µg/mL	< 5 µM	< 5 µM	> 32 µg/mL	>32 µg/mL	> 100 µM	> 80 µM	> 79.4 µM
Cc1nc(OCc2ccccc2OC(F)(F)F)c2nc([N+](=O)[O-])cn2c1C [26i, 5,6-Dimethyl-2-nitro-8-((2-(trifluoromethoxy)benzyl)oxy)imidazo[1,2-a]pyrazine]	–	–	–	–	> 100 µM	>32 µg/mL	> 32 µg/mL	< 5 µM	< 5 µM	> 32 µg/mL	>32 µg/mL	> 100 µM	–	–
